Counter-ions that a name gives are not always drawn. Like-named read-outs stand apart in the source and are kept apart here.
Legend:
[1] = biological target: PDE 4 (phosphodiesterase IV); assay: PDE 4 inhibiting effect (3H-cAMP hydrolysis, PDE 4 active fraction from Balb/c mouse liver); type: biochemical; details: PDE 4 fraction from Balb/c mice liver, 0.064 μM cAMP, 2 hours at 25° C.; read-out: PDE4 IC50
How it was run: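 Activity was measured as 3H-cAMP hydrolysis, with Sephadex-QAE added after the reaction. The enzyme was a PDE4-active fraction from 12-week male Balb/c mouse liver, taken from the ultracentrifuged soluble fraction by DEAE sepharose chromatography (0.05-1 M sodium acetate gradient, pH 6.5 buffer).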

[2] = biological target: PDE 7 (phosphodiesterase VII) (Homo sapiens (Human), UniProt Q13946); assay: PDE 7 inhibiting effect (3H-cAMP hydrolysis, PDE 7 active fraction from MOLT-4 cells); type: biochemical; details: read-out: PDE7 IC50
PDE 7 (phosphodiesterase VII), sequence (Q13946 whole entry): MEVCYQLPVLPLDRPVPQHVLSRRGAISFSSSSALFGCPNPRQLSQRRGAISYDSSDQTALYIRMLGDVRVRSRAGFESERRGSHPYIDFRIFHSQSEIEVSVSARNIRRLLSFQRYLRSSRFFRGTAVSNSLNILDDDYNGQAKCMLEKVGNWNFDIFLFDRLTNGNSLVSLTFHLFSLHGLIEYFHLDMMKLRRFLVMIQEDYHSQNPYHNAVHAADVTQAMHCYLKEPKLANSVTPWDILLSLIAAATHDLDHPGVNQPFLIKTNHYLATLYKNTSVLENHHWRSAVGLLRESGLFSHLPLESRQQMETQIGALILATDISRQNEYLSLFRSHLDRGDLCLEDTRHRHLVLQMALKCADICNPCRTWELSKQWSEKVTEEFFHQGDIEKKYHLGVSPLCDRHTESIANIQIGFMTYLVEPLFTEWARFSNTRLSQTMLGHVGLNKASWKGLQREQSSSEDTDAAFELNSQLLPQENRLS
How it was run: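 ³H-cAMP hydrolysis by a PDE7-active fraction was followed, and the reaction was worked up with a Sephadex-QAE suspension (10 mM HEPES-Na, pH 7.0). Enzyme came from MOLT-4 cell soluble extract (pH 7.5 Tris buffer, 100,000×G supernatant), fractionated by HiTrap Q anion exchange with a 0–0.8 M NaCl gradient.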

[3] = PDE 7 fraction from MOLT-4 cells, 0.064 μM cAMP, 10 μM rolipram, 2 hours at 25° C.

Structure (SMILES)	IC50 [1]	IC50 [2, 3]	IC50 [2]
CNC1CCN([C@H]2CC[C@H](NC(=O)c3cc4c(C)nn(C5CCCCC5)c4s3)CC2)CC1 [Example 179, 1-Cyclohexyl-3-methyl-N-{trans-4-[4-(methylamino)-1-piperidinyl]-cyclohexyl}-1H-thieno[2,3-c]pyrazole-5-carboxamide]	0.75 µM	0.0031 µM	–
CC(=O)N(C)C1CCN([C@H]2CC[C@H](NC(=O)c3cc4c(C)nn(C5CCCCC5)c4s3)CC2)CC1 [Example 180, N-(trans-4-{4-[Acetyl(methyl)amino]-1-piperidinyl}cyclohexyl)-1-cyclohexyl-3-methyl-1H-thieno[2,3-c]pyrazole-5-carboxamide]	1.4 µM	0.01 µM	–
Cc1nn(C2CCCCC2)c2sc(C(=O)N[C@H]3CC[C@H](N4CCC(N(C)C)CC4)CC3)cc12 [Example 181, 1-Cyclohexyl-N-{trans-4-[4-(dimethylamino)-1-piperidinyl]-cyclohexyl}-3-methyl-1H-thieno[2,3-c]pyrazole-5-carboxamide]	0.86 µM	0.0086 µM	–
Cc1nn(C2CCCCC2)c2sc(C(=O)N[C@H]3CC[C@H](N4CCC(N)CC4)CC3)cc12 [Example 184, N-[trans-4-(4-Amino-1-piperidinyl)cyclohexyl]-1-cyclohexyl-3-methyl-1H-thieno[2,3-c]pyrazole-5-carboxamide]	1.1 µM	0.0068 µM	–
Cc1nn(C2CCCCC2)c2sc(C(=O)N[C@H]3CC[C@H](N4CCNCC4)CC3)cc12 [Example 188, 1-Cyclohexyl-3-methyl-N-[trans-4-(1-piperazinyl)cyclohexyl]-1H-thieno[2,3-c]pyrazole-5-carboxamide]	0.7 µM	0.0065 µM	–
CC(=O)N1CCN([C@H]2CC[C@H](NC(=O)c3cc4c(C)nn(C5CCCCC5)c4s3)CC2)CC1 [Example 190, N-[trans-4-(4-Acetyl-1-piperazinyl)cyclohexyl]-1-cyclohexyl-3-methyl-1H-thieno[2,3-c]pyrazole-5-carboxamide]	1.7 µM	0.0035 µM	–
Cc1nn(C2CCCCC2)c2sc(C(=O)Nc3ccc(N4CCCN(C)CC4)c(F)c3)cc12 [Example 191, 1-Cyclohexyl-N-[3-fluoro-4-(4-methyl-1,4-diazepam-1-yl)phenyl]-3-methyl-1H-thieno[2,3-c]pyrazole-5-carboxamide hemifumarate]	0.98 µM	–	0.0089 µM
Cc1nn(C2CCOCC2)c2sc(C(=O)Nc3ccc(N4CCN(C)CC4)cc3)cc12 [Example 196, 3-Methyl-N-[4-(4-methyl-1-piperazinyl)phenyl]-1-tetrahydro-2H-pyran-4-yl-1H-thieno[2,3-c]pyrazole-5-carboxamide]	7.5 µM	0.09 µM	–
Cc1nn(C2CCOCC2)c2sc(C(=O)Nc3ccc(N4CCN(C)CC4)c(F)c3)cc12 [Example 197, N-[3-Fluoro-4-(4-methyl-piperazinyl)phenyl]-3-methyl-1-tetrahydro-2H-pyran-4-yl-1H-thieno[2,3-c]pyrazole-5-carboxamide]	4.4 µM	0.079 µM	–
Cc1nn(C2CCCCC2)c2sc(C(=O)Nc3ccc(CN4CCOCC4)cc3)cc12 [Example 199, 1-Cyclohexyl-3-methyl-N-[4-(4-morpholinylmethyl)phenyl]-1H-thieno[2,3-c]pyrazole-5-carboxamide fumarate]	5.8 µM	0.056 µM	–
Cc1nn(C2CCCCC2)c2sc(C(=O)Nc3ccc(CCN(C)C)cc3)cc12 [Example 200, 1-Cyclohexyl-N-{4-[(dimethylamino)ethyl]phenyl}-3-methyl-1H-thieno[2,3-c]pyrazole-5-carboxamide]	1.9 µM	0.016 µM	–
Cc1nn(C2CCCCC2)c2sc(C(=O)Nc3ccc(CCN4CCOCC4)cc3)cc12 [Example 201, 1-Cyclohexyl-3-methyl-N-{4-[2-(4-morpholinyl)ethyl]phenyl}-1H-thieno[2,3-c]pyrazole-5-carboxamide]	2.2 µM	0.018 µM	–
Cc1nn(C2CCCCC2)c2sc(C(=O)Nc3ccc(CN4C(=O)CN(C)C4=O)cc3)cc12 [Example 202, 1-Cyclohexyl-methyl-N-{4-[(3-methyl-2,5-dioxo-1-imidazolidinyl)-methyl]phenyl}-1H-thieno[2,3-c]pyrazole-5-carboxamide]	2.4 µM	0.033 µM	–
Cc1nn(C2CCCCC2)c2sc(C(=O)Nc3ccc(N4C(=O)CN(C)C4=O)cc3)cc12 [Example 203, 1-Cyclohexyl-3-methyl-N-[4-(3-methyl-2,5-dioxo-1-imidazolidinyl)-phenyl]-1H-thieno[2,3-c]pyrazole-5-carboxamide]	1.4 µM	0.0061 µM	–
Cc1nn(C2CCCCC2)c2sc(C(=O)N[C@H]3CC[C@H](C(=O)O)CC3)cc12 [Example 205, 4-{[(1-Cyclohexyl-3-methyl-1H-thieno[2,3-c]pyrazol-5-yl)carbonyl]-amino}cyclohexane carboxylic acid]	14 µM	0.091 µM	–
Cc1nn(C2CCCCC2)c2sc(C(=O)N[C@H]3CC[C@H](CO)CC3)cc12 [Example 206, 1-Cyclohexyl-N-[4-(hydroxymethyl)cyclohexyl]-3-methyl-1H-thieno[2,3-c]pyrazole-5-carboxamide]	3.8 µM	0.05 µM	–
Cc1nn(C2CCCCC2)c2sc(C(=O)N[C@H]3CC[C@H](C(=O)N(C)C)CC3)cc12 [Example 208, 1-Cyclohexyl-N-{4-[(dimethylamino)carbonyl]cyclohexyl}-3-methyl-1H-thieno[2,3-c]pyrazole-5-carboxamide]	3.8 µM	0.025 µM	–
Cc1nn(C2CCCCC2)c2sc(C(=O)N[C@H]3CC[C@H](C#N)CC3)cc12 [Example 209, N-(4-Cyanocyclohexyl)-1-cyclohexyl-3-methyl-1H-thieno[2,3-c]-pyrazole-5-carboxamide]	7.4 µM	0.077 µM	–
Cc1nn(C2CCCCC2)c2sc(C(=O)N[C@H]3CC[C@H](C(=O)O)C3)cc12 [Example 227, (1S,3S)-3-{[(1-Cyclohexyl-3-methyl-1H-thieno[2,3-c]pyrazol-5-yl)-carbonyl]amino}cyclopentanecarboxylic acid]	10 µM	0.056 µM	–
Cc1nn(C2CCCCC2)c2sc(C(=O)NCCN3CCN(C)C(=O)C3=O)cc12 [Example 228, 1-Cyclohexyl-3-methyl-N-[2-(4-methyl-2,3-dioxo-1-piperazinyl)ethyl]-1H-thieno[2,3-c]pyrazole-5-carboxamide]	5.8 µM	0.051 µM	–
Cc1nn(C2CCCCC2)c2sc(C(=O)N[C@H]3CC[C@H](C(=O)N(C)C)C3)cc12 [Example 230, 1-Cyclohexyl-N-{(1S,3S)-3-[(dimethylamino)carbonyl]cyclopentyl}-3-methyl-1H-thieno[2,3-c]pyrazole-5-carboxamide HCl salt]	7 µM	0.023 µM	–
Cc1nn(C2CCCCC2)c2sc(C(=O)NC3CCN(C(=O)N(C)C)CC3)cc12 [Example 235, 1-Cyclohexyl-N-{1-[(dimethylamino)carbonyl]-4-piperidinyl}-3-methyl-1H-thieno[2,3-c]pyrazole-5-carboxamide]	2.8 µM	0.017 µM	–
Cc1nn(C2CCCCC2)c2sc(C(=O)N[C@H]3CC[C@H](C(=O)N4CCOCC4)CC3)cc12 [Example 236, 1-Cyclohexyl-3-methyl-N-[4-(4-morpholinylcarbonyl)cyclohexyl]-1H-thieno[2,3-c]pyrazole-5-carboxamide]	2.7 µM	0.02 µM	–
Cc1nn(C2CCCCC2)c2sc(C(=O)N[C@H]3CC[C@H](C(=O)N4CCC(O)CC4)CC3)cc12 [Example 239, 1-Cyclohexyl-N-{4-[(4-hydroxy-1-piperidinyl)carbonyl]cyclohexyl}-3-methyl-1H-thieno[2,3-c]pyrazole-5-carboxamide]	2.6 µM	0.015 µM	–
Cc1nn(C2CCCCC2)c2sc(C(=O)N[C@H]3CC[C@H](CN4C(=O)CNC4=O)CC3)cc12 [Example 247, 1-Cyclohexyl-N-{4-[(2,5-dioxo-1-imidazolidinyl)methyl]cyclohexyl}-3-methyl-1H-thieno[2,3-c]pyrazole-5-carboxamide]	1.4 µM	0.0065 µM	–
Cc1nn(C2CCOCC2)c2sc(C(=O)Nc3ccc(C(=O)N(C)C)cc3)cc12 [Example 255, N-{4-[(Dimethylamino)carbonyl]phenyl}-3-methyl-1 tetrahydro-2H-pyran-4-yl-1H-thieno[2,3-c]pyrazole-5-carboxamide]	12 µM	0.089 µM	–
Cc1nn(C2CCCCC2)c2sc(C(=O)Nc3ccc(N4CCNC4=O)nc3)cc12 [Example 256, 1-Cyclohexyl-3-methyl-N-[6-(2-oxo-1-imidazolidinyl)-3-pyridinyl]-1H-thieno[2,3-c]pyrazole-5-carboxamide]	0.81 µM	0.002 µM	–
Cc1nn(C2CCCCC2)c2sc(C(=O)N[C@H]3CC[C@H](CO)C3)cc12 [Example 257, 1-Cyclohexyl-N-[(1S,3S)-3-(hydroxymethyl)cyclopentyl]-3-methyl-1H-thieno[2,3-c]pyrazole-5-carboxamide]	8.3 µM	0.068 µM	–
Cc1nn(C2CCCCC2)c2sc(C(=O)N[C@H]3CC[C@H](CN4C(=O)CNC4=O)C3)cc12 [Example 258, 1-Cyclohexyl-N-{(1S,3S)-3-[(2,5-dioxo-1-imidazolidinyl)methyl]cyclopentyl}-3-methyl-1H-thieno[2,3-c]pyrazole-5-carboxamide]	4.7 µM	0.015 µM	–

Source: US8901315B2, “Thienopyrazole derivative having PDE7 inhibitory activity” (Daiichi Sankyo Company, Limited, priority 2004, dated 2014)
